From publication PMC11420776 (RSC Advances, 2024)

Tests used:
OVCAR-8 (ovarian cancer) = test: NCI 60-cell one-dose antiproliferative screen; type: cell-based, human; conditions: one dose 10 μM
[1] = system: A549/ATCC (NSC lung cancer); test: NCI 60-cell one-dose antiproliferative screen; type: cell-based, human; conditions: one dose 10 μM
T-47D (breast cancer) = test: NCI 60-cell one-dose antiproliferative screen; type: cell-based, human; conditions: one dose 10 μM
SF-268 (CNS cancer) = test: NCI 60-cell one-dose antiproliferative screen; type: cell-based, human; conditions: one dose 10 μM
HOP-92 (NSC lung cancer) = test: NCI 60-cell one-dose antiproliferative screen; type: cell-based, human; conditions: one dose 10 μM
OVCAR-3 (ovarian cancer) = test: NCI 60-cell one-dose antiproliferative screen; type: cell-based, human; conditions: one dose 10 μM
[2] = system: NCI-H460 (NSC lung cancer); test: NCI 60-cell one-dose antiproliferative screen; type: cell-based, human; conditions: one dose 10 μM
RXF 393 (renal cancer) = test: NCI 60-cell one-dose antiproliferative screen; type: cell-based, human; conditions: one dose 10 μM
MDA-MB-435 (melanoma) = test: NCI 60-cell one-dose antiproliferative screen; type: cell-based, human; conditions: one dose 10 μM
HCC-2998 (colon cancer) = test: NCI 60-cell one-dose antiproliferative screen; type: cell-based, human; conditions: one dose 10 μM
SF-295 (CNS cancer) = test: NCI 60-cell one-dose antiproliferative screen; type: cell-based, human; conditions: one dose 10 μM
DU-145 (prostate cancer) = test: NCI 60-cell one-dose antiproliferative screen; type: cell-based, human; conditions: one dose 10 μM
ACHN (renal cancer) = test: NCI 60-cell one-dose antiproliferative screen; type: cell-based, human; conditions: one dose 10 μM
A498 (renal cancer) = test: NCI 60-cell one-dose antiproliferative screen; type: cell-based, human; conditions: one dose 10 μM
CCRF-CEM (leukemia) = test: NCI 60-cell one-dose antiproliferative screen; type: cell-based, human; conditions: one dose 10 μM
LOX IMIV (melanoma) = test: NCI 60-cell one-dose antiproliferative screen; type: cell-based, human; conditions: one dose 10 μM
KM12 (colon cancer) = test: NCI 60-cell one-dose antiproliferative screen; type: cell-based, human; conditions: one dose 10 μM
EKVX (NSC lung cancer) = test: NCI 60-cell one-dose antiproliferative screen; type: cell-based, human; conditions: one dose 10 μM
UACC-257 (melanoma) = test: NCI 60-cell one-dose antiproliferative screen; type: cell-based, human; conditions: one dose 10 μM
PC-3 (prostate cancer) = test: NCI 60-cell one-dose antiproliferative screen; type: cell-based, human; conditions: one dose 10 μM
TK-10 (renal cancer) = test: NCI 60-cell one-dose antiproliferative screen; type: cell-based, human; conditions: one dose 10 μM
COLO-205 (colon cancer) = test: NCI 60-cell one-dose antiproliferative screen; type: cell-based, human; conditions: one dose 10 μM
SK-MEL-2 (melanoma) = test: NCI 60-cell one-dose antiproliferative screen; type: cell-based, human; conditions: one dose 10 μM
SW-620 (colon cancer) = test: NCI 60-cell one-dose antiproliferative screen; type: cell-based, human; conditions: one dose 10 μM
HCT-15 (colon cancer) = test: NCI 60-cell one-dose antiproliferative screen; type: cell-based, human; conditions: one dose 10 μM
IGROV1 (ovarian cancer) = test: NCI 60-cell one-dose antiproliferative screen; type: cell-based, human; conditions: one dose 10 μM
[3] = system: 60 human tumor cell lines; test: NCI 60-cell one-dose antiproliferative screen, whole panel; type: cell-based; conditions: Homo sapiens, 60 cell, read-out: Mean inhibition (mean GI%)
[4] = system: NCI-H522 (NSC lung cancer); test: NCI 60-cell one-dose antiproliferative screen; type: cell-based, human; conditions: one dose 10 μM
UO-31 (renal cancer) = test: NCI 60-cell one-dose antiproliferative screen; type: cell-based, human; conditions: one dose 10 μM
SN12C (renal cancer) = test: NCI 60-cell one-dose antiproliferative screen; type: cell-based, human; conditions: one dose 10 μM
[5] = system: NCI-H226 (NSC lung cancer); test: NCI 60-cell one-dose antiproliferative screen; type: cell-based, human; conditions: one dose 10 μM
[6] = system: NCI/ADR-RES (ovarian cancer); test: NCI 60-cell one-dose antiproliferative screen; type: cell-based, human; conditions: one dose 10 μM
M14 (melanoma) = test: NCI 60-cell one-dose antiproliferative screen; type: cell-based, human; conditions: one dose 10 μM
OVCAR-5 (ovarian cancer) = test: NCI 60-cell one-dose antiproliferative screen; type: cell-based, human; conditions: one dose 10 μM
HS 578T (breast cancer) = test: NCI 60-cell one-dose antiproliferative screen; type: cell-based, human; conditions: one dose 10 μM
U251 (CNS cancer) = test: NCI 60-cell one-dose antiproliferative screen; type: cell-based, human; conditions: one dose 10 μM
SK-OV-3 (ovarian cancer) = test: NCI 60-cell one-dose antiproliferative screen; type: cell-based, human; conditions: one dose 10 μM
[7] = system: MDA-MB-468 (breast cancer); test: NCI 60-cell one-dose antiproliferative screen; type: cell-based, human; conditions: one dose 10 μM
UACC-62 (melanoma) = test: NCI 60-cell one-dose antiproliferative screen; type: cell-based, human; conditions: one dose 10 μM
CAKI-1 (renal cancer) = test: NCI 60-cell one-dose antiproliferative screen; type: cell-based, human; conditions: one dose 10 μM
HT29 (colon cancer) = test: NCI 60-cell one-dose antiproliferative screen; type: cell-based, human; conditions: one dose 10 μM
SK-MEL-28 (melanoma) = test: NCI 60-cell one-dose antiproliferative screen; type: cell-based, human; conditions: one dose 10 μM
[8] = system: NCI-H23 (NSC lung cancer); test: NCI 60-cell one-dose antiproliferative screen; type: cell-based, human; conditions: one dose 10 μM
SF-539 (CNS cancer) = test: NCI 60-cell one-dose antiproliferative screen; type: cell-based, human; conditions: one dose 10 μM
[9] = system: NCI-H322M (NSC lung cancer); test: NCI 60-cell one-dose antiproliferative screen; type: cell-based, human; conditions: one dose 10 μM
SNB-19 (CNS cancer) = test: NCI 60-cell one-dose antiproliferative screen; type: cell-based, human; conditions: one dose 10 μM
HOP-62 (NSC lung cancer) = test: NCI 60-cell one-dose antiproliferative screen; type: cell-based, human; conditions: one dose 10 μM
SNB-75 (CNS cancer) = test: NCI 60-cell one-dose antiproliferative screen; type: cell-based, human; conditions: one dose 10 μM
MALME-3M (melanoma) = test: NCI 60-cell one-dose antiproliferative screen; type: cell-based, human; conditions: one dose 10 μM
[10] = system: MDA-MB-231/ATCC (breast cancer); test: NCI 60-cell one-dose antiproliferative screen; type: cell-based, human; conditions: one dose 10 μM
MCF7 (breast cancer) = test: NCI 60-cell one-dose antiproliferative screen; type: cell-based, human; conditions: one dose 10 μM
OVCAR-4 (ovarian cancer) = test: NCI 60-cell one-dose antiproliferative screen; type: cell-based, human; conditions: one dose 10 μM
RPMI-8226 (leukemia) = test: NCI 60-cell one-dose antiproliferative screen; type: cell-based, human; conditions: one dose 10 μM
HCT-116 (colon cancer) = test: NCI 60-cell one-dose antiproliferative screen; type: cell-based, human; conditions: one dose 10 μM
786-0 (renal cancer) = test: NCI 60-cell one-dose antiproliferative screen; type: cell-based, human; conditions: one dose 10 μM

With COc1ccc(-c2nnc3ccc(NN=Cc4ccccc4)nn23)cc1 [Compound 4e, 6-(2-Benzylidenehydrazinyl)-3-(4-methoxyphenyl)-[1,2,4]triazolo[4,3-b]pyridazine] the GI% (OVCAR-8 (ovarian cancer)) was 34.25%, the GI% [1] was 21.90% and the GI% (T-47D (breast cancer)) was “— (— GI% is below 15%)”. The GI% (SF-268 (CNS cancer)) was “— (— GI% is below 15%)”, the GI% (HOP-92 (NSC lung cancer)) was 29.15% and the GI% (OVCAR-3 (ovarian cancer)) was “— (— GI% is below 15%)”. For the same molecule, the GI% [2] was “— (— GI% is below 15%)”, the GI% (RXF 393 (renal cancer)) was “— (— GI% is below 15%)” and the GI% (MDA-MB-435 (melanoma)) was “— (— GI% is below 15%)”. The GI% (HCC-2998 (colon cancer)) was “— (— GI% is below 15%)”, the GI% (SF-295 (CNS cancer)) was “— (— GI% is below 15%)” and the GI% (DU-145 (prostate cancer)) was “— (— GI% is below 15%)”. The GI% (ACHN (renal cancer)) was “— (— GI% is below 15%)”, the GI% (A498 (renal cancer)) was “— (— GI% is below 15%)” and the GI% (CCRF-CEM (leukemia)) was “— (— GI% is below 15%)”. For the same molecule, the GI% (LOX IMIV (melanoma)) was 29.87%, the GI% (KM12 (colon cancer)) was “— (— GI% is below 15%)” and the GI% (EKVX (NSC lung cancer)) was “— (— GI% is below 15%)”. The GI% (UACC-257 (melanoma)) was “— (— GI% is below 15%)”, the GI% (PC-3 (prostate cancer)) was “— (— GI% is below 15%)” and the GI% (TK-10 (renal cancer)) was “— (— GI% is below 15%)”. For the same molecule, the GI% (COLO-205 (colon cancer)) was “— (— GI% is below 15%)”, the GI% (SK-MEL-2 (melanoma)) was “— (— GI% is below 15%)” and the GI% (SW-620 (colon cancer)) was “— (— GI% is below 15%)”. For the same molecule, the GI% (HCT-15 (colon cancer)) was “— (— GI% is below 15%)”, the GI% (IGROV1 (ovarian cancer)) was “— (— GI% is below 15%)” and the inhibition at 10 µM [3] was 7.15%. The GI% [4] was “— (— GI% is below 15%)”, the GI% (UO-31 (renal cancer)) was “— (— GI% is below 15%)” and the GI% (SN12C (renal cancer)) was “— (— GI% is below 15%)”. For the same molecule, the GI% [5] was 42.42%, the GI% [6] was 30.10% and the GI% (M14 (melanoma)) was “— (— GI% is below 15%)”. The GI% (OVCAR-5 (ovarian cancer)) was “— (— GI% is below 15%)”, the GI% (HS 578T (breast cancer)) was 17.35% and the GI% (U251 (CNS cancer)) was 22.16%. The GI% (SK-OV-3 (ovarian cancer)) was “— (— GI% is below 15%)”, the GI% [7] was “— (— GI% is below 15%)” and the GI% (UACC-62 (melanoma)) was “— (— GI% is below 15%)”. The GI% (CAKI-1 (renal cancer)) was “— (— GI% is below 15%)”, the GI% (HT29 (colon cancer)) was “— (— GI% is below 15%)” and the GI% (SK-MEL-28 (melanoma)) was “— (— GI% is below 15%)”. The GI% [8] was “— (— GI% is below 15%)”, the GI% (SF-539 (CNS cancer)) was 17.17% and the GI% [9] was “— (— GI% is below 15%)”. For the same molecule, the GI% (SNB-19 (CNS cancer)) was 17.10%, the GI% (HOP-62 (NSC lung cancer)) was “— (— GI% is below 15%)” and the GI% (SNB-75 (CNS cancer)) was 62.97%. For the same molecule, the GI% (MALME-3M (melanoma)) was “— (— GI% is below 15%)”, the GI% [10] was 34.41% and the GI% (MCF7 (breast cancer)) was 28.54%. For the same molecule, the GI% (OVCAR-4 (ovarian cancer)) was “— (— GI% is below 15%)”, the GI% (RPMI-8226 (leukemia)) was “— (— GI% is below 15%)” and the GI% (HCT-116 (colon cancer)) was “— (— GI% is below 15%)”. For the same molecule, the GI% (786-0 (renal cancer)) was “— (— GI% is below 15%)”.
